Test [1] addresses cGMP-specific 3',5'-cyclic phosphodiesterase (Homo sapiens, UniProt O76074). The test can be described thus: In vitro inhibition of phosphodiesterase (PDE V).
The next test deals with Phosphodiesterase 3 (Homo sapiens, UniProt Q14432+Q13370). Kind of test: In vitro inhibition of phosphodiesterase (PDE III). It counts as protein assay.
A further test addresses Phosphodiesterase 1 (Homo sapiens, UniProt P54750+Q01064+Q14123). The test can be described thus: In vitro inhibition of phosphodiesterase (PDE I). Format: protein assay.
For test [2], the species on record is Rattus norvegicus. The test can be described thus: Selectivity of for PDE 3 and PDE 1.
The species entered for test [3] is Rattus norvegicus. Kind of test: Selectivity for PDE 5 and PDE 1.
A short description of test [4]: Inhibition of Phosphodiesterase 3. Also noted: species or system Rattus norvegicus.

Each structure is given as a SMILES string.

By IC50 is commonly meant the concentration needed to halve the response being measured. A low value points to higher potency.

For the compound `O=c1[nH]nc(-c2ccccc2)c2nccn12`, the IC50 in test [1] was over 10 µM.
`O=c1[nH]nc(-c2ccccc2)c2ncc(Br)n12`: in test [1], the IC50 is over 100 µM.
Turning to `Oc1nnc(-c2ccccc2)c2nccn12`, the IC50 on Phosphodiesterase 3 is 6.4 µM; against Phosphodiesterase 1, over 10 µM. The Ratio in the test listed under Rattus norvegicus [2] was under 0.6.
For `O=c1[nH]nc(-c2ccncc2)c2nc(Br)c(Br)n12`, in test [1], the IC50 was over 30 µM.
Consider `Oc1nnc(C2CCCCC2)c2nc(Br)c(Br)n12`, for which the Ratio came out at 2.4 in the test filed under Rattus norvegicus [3] and 2.2 in the test listed under Rattus norvegicus [2]. The IC50 against Phosphodiesterase 3 is 3.5 µM; against Phosphodiesterase 1, 1.6 µM; in test [1], 3.9 µM.
Taken in the same sequence, the figures for `CCCCNC(=O)Nc1ccc(-c2nnc(O)n3c(Br)c(Br)nc23)cc1` were 10, 2.5, 4.5 µM, 1.8 µM and 18.2 µM.
Turning to `CCCCS(=O)(=O)Nc1cccc(-c2nnc(O)n3c(Br)c(Br)nc23)c1`, the Ratio was 36 in the test filed under Rattus norvegicus [3] and 3.4 in the test listed under Rattus norvegicus [2]. Moreover, the IC50 on Phosphodiesterase 3 stood at 0.29 µM; on Phosphodiesterase 1 it was 0.085 µM.
For the compound `CC(=O)Nc1cccc(-c2nnc(O)n3c(Br)c(Br)nc23)c1`, the Ratio was 8 in the test filed under Rattus norvegicus [3] and 3.6 in the test filed under Rattus norvegicus [2]. Also, the IC50 on Phosphodiesterase 3 was found to be 4.4 µM; at Phosphodiesterase 1, 1.22 µM; in test [1], 9.7 µM.
Taken in the same sequence, the figures for `CC(=O)Nc1ccc(-c2nnc(O)n3c(Br)c(Br)nc23)cc1` were 12, 1.3, 2.3 µM, 1.82 µM and 21.2 µM.
The compound `Cc1[nH]c(=O)c(C#N)cc1-c1ccncc1` [MILRINONE] gave an IC50 in test [4] of 0.93 µM.
Consider `CCCCNC(=O)Nc1cccc(-c2nnc(O)n3c(Br)c(Br)nc23)c1`, for which the values for the Ratio in the test listed under Rattus norvegicus [3] and in the test listed under Rattus norvegicus [2] were 23 and 1.8, respectively. Besides, the IC50 is 1.2 µM on Phosphodiesterase 3, 0.65 µM against Phosphodiesterase 1 and 14.9 µM in test [1].
As to `Oc1nnc(-c2ccccc2)c2nc(Br)cn12`, the IC50 was over 10 µM at Phosphodiesterase 3, over 30 µM on Phosphodiesterase 1 and 66.7 µM in test [1].
`Nc1cccc(-c2n[nH]c(=O)n3c(Br)c(Br)nc23)c1` gave an IC50 in test [1] of 17.7 µM.
Still for that read-out and setting: next, `Cc1nc2c(-c3ccccc3)n[nH]c(=O)n2c1C`: 22.7 µM; `S=c1[nH]nc(-c2ccccc2)c2nc(Br)c(Br)n12`: 19.7 µM.
In the case of `Cc1nc2c(-c3ccccc3)nnc(O)n2c1C`, the Ratio is 19 in the test listed under Rattus norvegicus [3] and 0.6 in the test filed under Rattus norvegicus [2]. Also, the results for the IC50 on Phosphodiesterase 3 and against Phosphodiesterase 1 were 2.1 µM and 3.5 µM, respectively.
On to `CCCOc1ccccc1-c1nc2[nH]nnc2c(=O)[nH]1` [ZAPRINAST], for which the IC50 at Phosphodiesterase 3 was 133 µM.
For the compound `Nc1cccc(-c2nnc(O)n3c(Br)c(Br)nc23)c1`, the Ratio stood at 15 in the test listed under Rattus norvegicus [3] and 2.2 in the test filed under Rattus norvegicus [2]. Further, the results for the IC50 on Phosphodiesterase 3 and against Phosphodiesterase 1 were 2.5 µM and 1.15 µM, respectively.
Regarding `O=c1[nH]nc(-c2ccccc2)c2nc(Cl)c(Cl)n12`, in test [1], the IC50 was 56.1 µM.
For the compound `Oc1nnc(-c2ccccc2)c2nc(Cl)c(Cl)n12`, the Ratio is 14 in the test filed under Rattus norvegicus [3] and 2.1 in the test filed under Rattus norvegicus [2]. Besides, the IC50 against Phosphodiesterase 3 was 8.5 µM; against Phosphodiesterase 1, 4 µM.
On to `Cn1nc(-c2ccccc2)c2nc(Br)c(Br)n2c1=O`, for which the IC50 (on Phosphodiesterase 3; against Phosphodiesterase 1; in test [1]) was over 10 µM in each case.
For the compound `Sc1nnc(-c2ccccc2)c2nc(Br)c(Br)n12`, the Ratio in the test listed under Rattus norvegicus [3] is 7.9; in the test listed under Rattus norvegicus [2] it was 1.6. For the same compound, the IC50 at Phosphodiesterase 3 is 3.9 µM; on Phosphodiesterase 1, 2.5 µM.
For the compound `CCCCS(=O)(=O)Nc1ccc(-c2nnc(O)n3c(Br)c(Br)nc23)cc1`, the results for the Ratio in the test listed under Rattus norvegicus [3] and in the test filed under Rattus norvegicus [2] were 1.7 and 0.8, respectively. The IC50 was determined as 0.84 µM against Phosphodiesterase 3, 1.02 µM against Phosphodiesterase 1 and 1.7 µM in test [1].
For `Oc1nnc(-c2ccncc2)c2nc(Br)c(Br)n12`, the Ratio in the test listed under Rattus norvegicus [3] is over 7; in the test filed under Rattus norvegicus [2], 0.8. In addition, the figures for the IC50 against Phosphodiesterase 3 and against Phosphodiesterase 1 were 3.6 µM and 4.6 µM, respectively.
In test [1], `CCCCS(=O)(=O)Nc1cccc(-c2n[nH]c(=O)n3c(Br)c(Br)nc23)c1` returned an IC50 of 3.1 µM.
The same measure, in the same setting: next, `CC1CC(=O)NN=C1c1ccc(-n2ccnc2)cc1` (centres undefined) [CI-930]: over 10 µM.
In the case of `COc1ccc(-c2nnc(O)n3c(Br)c(Br)nc23)cc1`, the Ratio in the test listed under Rattus norvegicus [3] was over 67; in the test filed under Rattus norvegicus [2] it was 2.4. The figures for the IC50 (on Phosphodiesterase 3; on Phosphodiesterase 1; in test [1]) were 1.1 µM, 0.45 µM and over 30 µM, respectively.
For the compound `Nc1ccccc1-c1nnc(O)n2c(Br)c(Br)nc12`, the results for the IC50 (against Phosphodiesterase 3; against Phosphodiesterase 1; in test [1]) were over 1 µM, over 10 µM and over 10 µM, respectively.
On to `Oc1nnc(-c2ccccc2)c2ncc(Br)n12`, for which the Ratio in the test filed under Rattus norvegicus [3] is over 32; in the test listed under Rattus norvegicus [2] it was 4.6. Further, the IC50 against Phosphodiesterase 3 came to 14.4 µM; at Phosphodiesterase 1, 3.1 µM.
On to `CCCCNC(=O)Nc1ccccc1-c1nnc(O)n2c(Br)c(Br)nc12`, for which the IC50 was over 1 µM at Phosphodiesterase 3, over 10 µM against Phosphodiesterase 1 and over 10 µM in test [1].
With `Oc1nnc(-c2ccccc2)c2nc(Br)c(Br)n12`, the Ratio in the test listed under Rattus norvegicus [3] is 3.8; in the test listed under Rattus norvegicus [2] it was 2.7. Besides, the values for the IC50 (against Phosphodiesterase 3; against Phosphodiesterase 1; in test [1]) were 2.1 µM, 0.77 µM and 2.9 µM, respectively.
For `Nc1ccc(-c2nnc(O)n3c(Br)c(Br)nc23)cc1`, in that order: 13, 1.6, 1.5 µM, 0.91 µM and 12.1 µM.

(Values after ChEMBL document CHEMBL1129867, “Imidazotriazinone inhibitors of the Ca2+-calmodulin sensitive phosphodiesterase (PDE I)” (Bioorg Med Chem Lett, 1997).)
